# Test results: US12239654B2, “Compounds and methods for treating neurological and cardiovascular conditions” (Astrocyte Pharmaceuticals, Inc., priority 2016, dated 2025)
# Columns and labels:
# [1] = Previous/initial in vivo pharmacokinetic assessments of MRS2365 in mice
# [2] = In vitro stability of MRS2365 in human plasma; assay type: in vitro ADME
# Procedure: Whole blood was obtained from male CD-1 mice and human volunteers at Seventh Wave Laboratories (Maryland Heights, MO). Plasma and blood samples were prepared using either EDTA (1 mM) or lithium heparin as anticoagulants.
# Plasma Stability Determination: MRS2365, enalapril and procaine were solubilized in phosphate-buffered saline, pH 7.4. […] Stability incubations were initiated with the addition of MRS2365 (1 μM final concentration). Initial assessments of stability in EDTA-generated plasma utilized incubation timepoints of 0, 10, 30, 60, 120 and 240 minutes (FIGS. 3 and 4). Subsequent studies comparing EDTA- and heparin-generated plasma utilized incubation timepoints of 0, 1, 2.5, 5, 7.5, 10 and 30 minutes (FIG. 7). Additional plasma stability incubations comparing EDTA- and heparin-generated plasma were performed using timepoints of 0, 5, 10, 20, 30, 45, 60 and 90 seconds (FIG. 8). For metabolite scouting analyses, MRS2365 was incubated in heparinized human plasma at a concentration of 100 μM for 10 or 30 minutes (FIG. 9). In all studies, plasma was immediately placed in microtainer tubes, frozen on dry ice and stored at −80° C. until analysis.
# The following table outlines the LC and MS/MS conditions employed (Table 11).
# The calibration range for MRS2365 plasma and blood concentration standard curves was 5-5000 ng/mL. […]
smiles,measurement,setting,value
CSc1nc(N)c2ncn([C@H]3[C@H](O)[C@H](O)[C@]4(COP(=O)(O)OP(=O)(O)O)C[C@H]34)c2n1 [MRS2365],circulating and brain concentrations of MRS2365,"[1]; following intraperitoneal or intravenous administration, previous studies",no detectable
same,clearance in vivo,"[1]; mice, heparin as blood anticoagulant for plasma preparation",rapidly cleared at a rate approximating cardiac output
same,half-life at 1 μM,"[2]; EDTA-prepared human plasma, 1 μM, incubation out to 240 minutes",> 4 h
same,MRS2365 concentrations in heparin-treated plasma,"[2]; heparin-treated human plasma, 0-90 seconds, even at 0 and 5 seconds",extremely low
